{"source": "patent US9789110B2", "about": "“Diacylglycerol acyltransferase 2 inhibitors” (PFIZER INC., priority 2014, dated 2017)", "key": {"hDGAT2": {"target": "hDGAT2 (Homo sapiens (Human), UniProt Q96PD7)", "sequence (Q96PD7 whole entry)": "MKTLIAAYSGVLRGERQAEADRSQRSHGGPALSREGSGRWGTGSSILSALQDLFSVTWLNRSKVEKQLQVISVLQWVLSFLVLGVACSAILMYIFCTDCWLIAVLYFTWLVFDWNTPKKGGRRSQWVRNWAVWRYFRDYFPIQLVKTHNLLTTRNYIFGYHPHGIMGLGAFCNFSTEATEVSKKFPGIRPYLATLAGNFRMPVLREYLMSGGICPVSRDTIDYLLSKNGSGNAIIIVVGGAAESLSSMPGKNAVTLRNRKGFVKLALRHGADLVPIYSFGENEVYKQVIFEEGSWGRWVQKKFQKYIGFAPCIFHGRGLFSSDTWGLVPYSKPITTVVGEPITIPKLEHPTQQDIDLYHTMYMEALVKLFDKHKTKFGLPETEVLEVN", "test": "In vitro DGAT2 assay, hDGAT2 membrane fraction, [14C]decanoyl-CoA scintillation readout", "assay_type": "biochemical", "conditions": "read-out: IC50 for inhibition of DGAT2", "description": "Recombinant baculovirus for the FLAG-tagged hDGAT2 was generated in SF9 insect cells using Bac-to-Bac baculovirus expression system (Invitrogen) according to the manufacturer's protocol. For the expression of hDGAT2, SF9 cells (20 L) grown in Sf90011 media were infected with hDGAT2 baculovirus at a multiplicity of infection of 1 in a Wave Bioreactor System 20/50P wave bag (GE Healthcare). After 40 hours of infection, the cells were then harvested by centrifugation at 5,000×g. The cell pellets were washed by resuspending in phosphate buffered saline (PBS) and collected by centrifugation at 5,000×g. The cell paste was flash frozen in liquid N2 and stored at −80° C. until needed. All operations below were at 4° C. unless otherwise noted. The cells were resuspended in lysis buffer (50 mM Tris-HCl, pH 8.0, 250 mM sucrose) including 1 mM ethylenediaminetetraacetic acid (EDTA) and the complete protease inhibitor cocktail (Roche Diagnostics) at a ratio of 3 ml buffer per 1 g cell paste. The cells were lysed by dounce homogenizer. The cell debris was removed by centrifugation at 1,000×g for 20 min, and the supernatant was centrifuged at 100,000×g for 1 hour. The resulting pellet was rinsed three times by filling ultracentrifuge tubes to the top with ice cold PBS before decanting. The washed pellet was resuspended with gentle stirring for 1 hour in lysis buffer containing 8 mM 3-[(3-cholamidopropyl)dimethylammonio]-1-propanesulfonate (CHAPS) at a ratio of 1 mL buffer per 1 g of original cell paste and centrifuged again at 100,000×g for 1 hour. The resulting supernatant was aliquotted, flash frozen in liquid N2, and stored at −80° C. until use.\nFor determination of IC50 values, the reactions were carried out in 384-well white Polyplates (Perkin Elmer) in a total volume of 20 μL. To […] compounds dissolved in 100% DMSO and spotted at the bottom of each well, 5 μL of 0.04% bovine serum albumin (BSA) (fatty acid free, Sigma Aldrich) was added and the mixture was incubated at room temperature for 20 minutes. To this mixture, 10 μL of hDGAT2 membrane fraction (0.01 mg/mL) diluted in 100 mM Hepes-NaOH, pH 7.4, 20 mM MgCl2 containing 200 nM methyl arachidonyl fluorophosphonate (Cayman Chemical; dried from ethyl acetate stock solution under argon gas and dissolved in DMSO as 5 mM stock) was added. After this mixture was preincubated at room temperature for 2 hours, DGAT2 reactions were initiated by the addition of 4 μL of substrates containing 30 μM [1-^14C]decanoyl-CoA (custom-synthesized by Perkin Elmer, 50 mCi/mmol) and 125 μM 1,2-didecanoyl-sn-glycerol (Avanti Polar Lipids) dissolved in 12.5% acetone. The reaction mixtures were incubated at room temperature for 40 min and the reactions were stopped by addition of 5 μL of 1% H3PO4. After the addition of 45 μL MicroScint-E (Perkin-Elmer), plates were sealed with Top Seal-A covers (Perkin-Elmer) and phase partitioning of substrates and products was achieved using a HT-91100 microplate orbital shaker (Big Bear Automation, Santa Clara, Calif.). Plates were centrifuged at 2,000×g for 1 min in an Allegra 6R Centrifuge (Beckman Coulter) and then were sealed again with fresh covers before reading in a 1450 Microbeta Wallac Trilux Scintillation Counter (Perkin Elmer). DGAT2 activity was measured by quantifying the generated product [^14C]tridecanoylglycerol in the upper organic phase.\nInhibitors were tested at eleven different concentrations to generate IC50 values for each compound."}, "[1]": {"target": "DGAT2 in primary human hepatocytes (Homo sapiens (Human), UniProt Q96PD7)", "sequence (Q96PD7 whole entry)": "as above", "test": "IC50 for DGAT2 inhibitors in human hepatocytes, [14C]-glycerol incorporation into lipids", "assay_type": "cell-based", "conditions": "average; cryopreserved human hepatocytes; selective DGAT1 inhibitor 3 μM in all wells; 3 hour incubation; read-out: IC50 in primary human hepatocytes", "description": "For evaluation of the effects of DGAT2 inhibitors in a cell-based setting, cryopreserved human hepatocytes (Lot QOC and NON, Celsis, Chicago, Ill.) were thawed and plated onto type I collagen-coated plates according to the manufacturer's instructions. After 24 hours overnight recovery period, the cells were overlayed with media containing 250 μg/ml Matrigel (BD Biosciences, San Jose, Calif.). The following day, media was aspirated and replaced with serum-free Williams Media E (Life Technologies, Grand Island, N.Y.) containing 400 μM sodium dodecanoate (Sigma-Aldrich, St. Louis, Mo.). Forty minutes later, DGAT2 inhibitors (prepared as 100× stocks in 25% DMSO, 75% Williams' Media E) were added to the desired final concentration. […] After a 20 minute preincubation, 0.2 μCi [1,3-^14C]-glycerol glycerol (American Radio Chemicals, St. Louis, Mo.) was added to each well and mixed by gentle pipetting prior to a 3 hour incubation. At this point, media was aspirated and the cells were lysed in isopropyl alcohol: tetrahydrofuran (9:1) prior to centrifugation at 3000 rpm for 5 minutes. Radiolabeled lipids were resolved using a 2-solvent system by thin layer chromatography using standard technique (solvent 1 contained ethyl acetate:isopropyl alcohol:chloroform:methanol:0.25% potassium chloride in water (100:100:100:40.2:36.1, v/v/v/v) and solvent 2 contained hexane: diethyl ether: acetic acid (70:27:3, v/v/v)). After separation, radiolabeled lipids were visualized using a Molecular Dynamics' PhosphorImager system. The half maximal inhibitory concentrations (IC50 values) were determined using GraphPad Prism (GraphPad Software, Inc., La Jolla, Calif.).\nTable 4 below provides IC50 values for the Examples in accordance with the above-described assay. Results were reported as average IC50 values, low and high IC50 range (95% confidence interval)."}, "[2]": {"conditions": "geometric mean, FLAG-hDGAT2 membrane fraction, 2 h preincubation"}}, "note": "Like-named read-outs stand apart in the source and are kept apart here.", "data": [{"compound": "CCOc1ccccc1O[C@@H]1CCCN(c2ncc(C(=O)NCc3ccc(C(C)C(=O)O)cc3)cn2)C1", "note": "(single isomer, unassigned) [Example 15]", "values": [{"measurement": "IC50", "setting": "hDGAT2; [2]", "result": 2.4, "unit": "nM"}, {"measurement": "IC50", "setting": "[1]", "result": 78.8, "unit": "nM"}]}, {"compound": "CCOc1ccccc1O[C@@H]1CCCN(c2ncc(C(=O)NCc3cccc(C(=O)O)c3)cn2)C1", "note": "[Example 1, (R)-3-((2-(3-(2-ethoxyphenoxy)piperidin-1-yl)pyrimidine-5-carboxamido)methyl)benzoic acid]", "values": [{"measurement": "IC50", "setting": "hDGAT2; [2]", "result": 91.6, "unit": "nM"}, {"measurement": "IC50", "setting": "[1]", "result": 11.2, "unit": "nM"}]}, {"compound": "CCOc1ccccc1O[C@@H]1CCCN(c2ncc(C(=O)NCc3cc(OC)cc(C(=O)O)c3)cn2)C1", "note": "[Example 2, (R)-3-((2-(3-(2-ethoxyphenoxy)piperidin-1-yl)pyrimidine-5-carboxamido)methyl)-5-methoxybenzoic acid]", "values": [{"measurement": "IC50", "setting": "hDGAT2; [2]", "result": 123, "unit": "nM"}, {"measurement": "IC50", "setting": "[1]", "result": 11.5, "unit": "nM"}]}, {"compound": "CCOc1ccccc1O[C@@H]1CCCN(c2ncc(C(=O)N[C@H](C)c3cccc(C(=O)O)c3)cn2)C1", "note": "[Example 3, 3-((R)-1-(2-((R)-3-(2-ethoxyphenoxy)piperidin-1-yl)pyrimidine-5-carboxamido)ethyl)benzoic acid]", "values": [{"measurement": "IC50", "setting": "hDGAT2; [2]", "result": 88.4, "unit": "nM"}, {"measurement": "IC50", "setting": "[1]", "result": 29.2, "unit": "nM"}]}, {"compound": "CCNC(=O)c1cnc(N2CCC[C@@H](Oc3ccccc3OCC)C2)nc1", "note": "[Example 4, (R)-2-(3-(2-ethoxyphenoxy)piperidin-1-yl)-N-ethylpyrimidine-5-carboxamide]", "values": [{"measurement": "IC50", "setting": "hDGAT2; [2]", "result": 35, "unit": "nM"}, {"measurement": "IC50", "setting": "[1]", "result": 6.6, "unit": "nM"}]}, {"compound": "CCOc1ccccc1O[C@@H]1CCCN(c2ncc(C(=O)N[C@H]3CCC[C@H]3C(=O)O)cc2F)C1", "note": "[Example 5, (1R,2S)-2-(6-((R)-3-(2-ethoxyphenoxy)piperidin-1-yl)-5-fluoronicotinamido)cyclopentane-1-carboxylic acid]", "values": [{"measurement": "IC50", "setting": "hDGAT2; [2]", "result": 66.6, "unit": "nM"}, {"measurement": "IC50", "setting": "[1]", "result": 8.4, "unit": "nM"}]}, {"compound": "CCOc1ccccc1O[C@@H]1CCCN(c2ncc(C(=O)N[C@H]3CCC[C@H]3C(=O)O)cn2)C1", "note": "[Example 6, (1R,2S)-2-(2-((R)-3-(2-ethoxyphenoxy)piperidin-1-yl)pyrimidine-5-carboxamido)cyclopentane-1-carboxylic acid]", "values": [{"measurement": "IC50", "setting": "hDGAT2; [2]", "result": 222, "unit": "nM"}, {"measurement": "IC50", "setting": "[1]", "result": 57.8, "unit": "nM"}]}, {"compound": "CCOc1ccccc1O[C@@H]1CCCN(c2ccc(C(=O)NCc3cccc(C(=O)O)c3)cn2)C1", "note": "[Example 7, (R)-3-((6-(3-(2-ethoxyphenoxy)piperidin-1-yl)nicotinamido)methyl)benzoic acid]", "values": [{"measurement": "IC50", "setting": "hDGAT2; [2]", "result": 149, "unit": "nM"}, {"measurement": "IC50", "setting": "[1]", "result": 19.2, "unit": "nM"}]}, {"compound": "CCOc1ccccc1O[C@@H]1CCCN(c2ncc(C(=O)NCc3ccnc(C(=O)O)c3)cc2F)C1", "note": "[Example 8, (R)-4-((6-(3-(2-ethoxyphenoxy)piperidin-1-yl)-5-fluoronicotinamido)methyl)picolinic acid]", "values": [{"measurement": "IC50", "setting": "hDGAT2; [2]", "result": 9.7, "unit": "nM"}, {"measurement": "IC50", "setting": "[1]", "result": 51.7, "unit": "nM"}]}, {"compound": "CCOc1ccccc1O[C@@H]1CCCN(c2ncc(C(=O)NCc3cc(C(=O)O)ccc3C)cn2)C1", "note": "[Example 9, (R)-3-((2-(3-(2-ethoxyphenoxy)piperidin-1-yl)pyrimidine-5-carboxamido)methyl)-4-methylbenzoic acid]", "values": [{"measurement": "IC50", "setting": "hDGAT2; [2]", "result": 38.1, "unit": "nM"}, {"measurement": "IC50", "setting": "[1]", "result": 57, "unit": "nM"}]}, {"compound": "CCOc1ccccc1O[C@@H]1CCCN(c2ncc(C(=O)N3CCCC3)cn2)C1", "note": "[Example 20.9, (R)-(2-(3-(2-ethoxyphenoxy)piperidin-1-yl)pyrimidin-5-yl)(pyrrolidin-1-yl)methanone]", "values": [{"measurement": "IC50", "setting": "hDGAT2; [2]", "result": 24.5, "unit": "nM"}]}, {"compound": "CCOc1ccccc1O[C@@H]1CCCN(c2ncc(C(=O)N3CCCCC3)cn2)C1", "note": "[Example 20.11, (R)-(2-(3-(2-ethoxyphenoxy)piperidin-1-yl)pyrimidin-5-yl)(piperidin-1-yl)methanone]", "values": [{"measurement": "IC50", "setting": "hDGAT2", "result": 15.7, "unit": "nM"}]}, {"compound": "CCOc1ccccc1O[C@@H]1CCCN(c2ncc(C(=O)N[C@H]3CCc4ccccc43)cn2)C1", "note": "[Example 21.1, N-((S)-2,3-dihydro-1H-inden-1-yl)-2-((R)-3-(2-ethoxyphenoxy)piperidin-1-yl)pyrimidine-5-carboxamide]", "values": [{"measurement": "IC50", "setting": "hDGAT2; [2]", "result": 1.5, "unit": "nM"}]}, {"compound": "CCOc1ccccc1O[C@@H]1CCCN(c2ncc(C(=O)N3CC(Oc4ccccc4)C3)cn2)C1", "note": "[Example 21.2, (R)-(2-(3-(2-ethoxyphenoxy)piperidin-1-yl)pyrimidin-5-yl)(3-phenoxyazetidin-1-yl)methanone]", "values": [{"measurement": "IC50", "setting": "hDGAT2; [2]", "result": 0.6, "unit": "nM"}]}]}
